US20260217686A1, “N-Myristoyltransferase Inhibitors And Methods Of Use” (Seattle Children's Hospital (d/b/a Seattle Children's …, priority 2022, published 2026)
Like-named read-outs stand apart in the source and are kept apart here.

What was measured:
PvNMT = target: T1, PvNMT (Plasmodium vivax, UniProt A5K1A2); experiment: biochemical; format: biochemical
T1 construct: Gly-Pro stays on the protein after cleavage) (N, cleaved yes); host or cells: E. coli Rosetta 2 (DE3) pRARE
Text: NMT activity was indirectly measured through the detection of free CoA by the thiol-reactive probe 7-diethylamino-3-(4′-maleimidylphenyl)-4-methylcoumarin (CPM).
This study aimed to identify NMT is with high selectivity for the P. vivax enzyme compared with human NMTs and high potency against the different stages of the P. vivax parasite. For this purpose, a structure-guided approach was applied using previously reported NMT inhibitors as scaffolds to develop a new generation of PvNMT-targeting compounds. The NMT activity of these inhibitors was first measured using biochemical assays through the detection of free CoA by the thiol-reactive probe 7-diethylamino-3-(4′-maleimidylphenyl)-4-methylcoumarin (CPM). Their antiparasitic activity were further evaluated by measuring blood-stage parasite load and inhibition of P. vivax liver-stage schizont and hypnozoite infection. […] Cytotoxicity was assessed in the human hepatoma HepG2 cell line. Synchronized P. falciparum NF54 ring-stage parasites were used for measuring blood-stage parasite load. […] In vitro experiments were repeated at least twice. A single concentration of each inhibitor was initially used to evaluate the inhibition of P. vivax liver stage schizont and hypnozoite infection, followed by the determination of the dose-response relationship.
To measure the activity of the purified PvNMT an assay was adapted from the literature. […] Working stock solutions were made fresh adding DMSO for final concentrations of either 1% or 5% DMSO. […] The plate was incubated for 30 min at room temperature. The enzymatic reaction was initiated by adding 50 μL of reaction substrate containing 10 µM myrCoA and PfARF, as well as 8 μM CPM. Fluorescent readings were taken on a Spectra M2 plate reader (Molecular Devices) with excitation at 385 nm and emission at 485 nm. Fluorescent intensity was measured continuously in one-minute intervals for 45 minutes. Background fluorescence and noise were determined by replacing each constituent of the reaction individually with assay buffer containing 1% DMSO and values were deducted from experimental samples. The enzymatic reactions were set up with varying pHs (6.0-8.5) of the assay buffer to determine optimal reaction conditions with minimal background and off target reactions. In lieu of compound, 10 μL of 10% DMSO/H2O was added to each well. Fluorescence signal was obtained continuously for 45 min. […] IC50 calculations were calculated using Prism (GraphPad Software, Inc).

HsNMT1 = target: T2, HsNMT1 (Homo sapiens, UniProt P30419); experiment: NMT activity assay (CPM detection of free CoA), human NMT; format: biochemical; conditions: read-out: HsNMT IC50 (nM)*
T2 construct: made in house
T2 sequence (P30419 1-496): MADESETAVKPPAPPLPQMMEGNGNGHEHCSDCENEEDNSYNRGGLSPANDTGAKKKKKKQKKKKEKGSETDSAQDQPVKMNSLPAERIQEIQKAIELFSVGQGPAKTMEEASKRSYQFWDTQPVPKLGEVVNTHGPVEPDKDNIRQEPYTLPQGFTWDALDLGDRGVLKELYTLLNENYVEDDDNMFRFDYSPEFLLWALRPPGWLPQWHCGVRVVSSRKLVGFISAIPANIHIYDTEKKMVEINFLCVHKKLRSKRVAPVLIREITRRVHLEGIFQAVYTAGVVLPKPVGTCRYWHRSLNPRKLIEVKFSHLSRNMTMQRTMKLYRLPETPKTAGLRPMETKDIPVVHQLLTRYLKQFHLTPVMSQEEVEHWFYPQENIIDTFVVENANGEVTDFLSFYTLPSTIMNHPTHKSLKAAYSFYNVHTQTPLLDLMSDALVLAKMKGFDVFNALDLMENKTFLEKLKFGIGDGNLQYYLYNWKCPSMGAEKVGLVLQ

P. vivax hypnozoites = experiment: P. vivax liver stage assay in primary human hepatocytes, hypnozoites; format: cell-based; conditions: Plasmodium vivax, Hepatocyte; for IC50: 8 dpi, primary human hepatocytes, read-out: liver stage Pv hypnozoites IC50
Experimental: Finally, the NMT-binding compounds were evaluated against non-developing P. vivax hypnozoites. […] .

[1] = HepG2 cytotoxicity assay (live/dead staining); format: cell-based, human; conditions: human
Experimental: (§1) Therefore, the cytotoxicity of the compounds was assessed in the human hepatoma HepG2 cell line. The compounds with PvNMT to HsNMT selectivity index above 20 were shortlisted for further screening.

[2] = test system: P. falciparum NF54 ring-stage parasites; experiment: P. falciparum blood stage assay (SYBR Green parasite DNA); format: cell-based; conditions: Plasmodium falciparum, NF54, 72 h; read-out: blood stage Pf NF54 IC50
Experimental: To assess whether any of the NMTis developed here could qualify as TCP-1 candidates, the effect of each compound on blood-stage P. falciparum parasites was assessed, as there is currently no well-established in vitro platform for screening P. vivax blood-stage parasites. Synchronized P. falciparum NF54 ring stage parasites were treated for 72 h with each compound at various concentrations, ranging from 0.625 μM to 10 μM, and parasite DNA replication was measured using a fluorescent DNA binding dye (SYBR Green).
Sorbitol-synchronized P. falciparum NF54 ring-stage parasites were cultured at a parasitemia of 0.5% and hematocrit of 1.5% in a 96-well microtiter plate. […] Direct lysis of the blood cells to release the parasite DNA was performed by adding 100 μL of LBS buffer containing SYBR green I DNA binding dye to each well. Plates were incubated at-20° C. overnight for complete lysis and fluorescence was measured at 485 nm (excitation) and 528 nm (emission). ICEstimator regression analysis (antimalarial-icestimator dot net) was used to obtain relative IC50 values for each compound.

[3] = test system: P. vivax liver stage schizonts; experiment: P. vivax liver stage assay in primary human hepatocytes, schizonts; conditions: Plasmodium vivax, Hepatocyte, read-out: liver stage Pv schizonts IC50 (μM)
Experimental: P. vivax sporozoites were obtained from three independent patient isolates. Liver stage infections were cultured in primary human hepatocytes from a single donor lot using a 384-well microculture system as described previously. Cells were infected and treated with NMTis at 20 μM beginning day 5 post-infection until day 8 when the infection rates were quantified via fluorescent microscopy. […] Accordingly, dose-response curves of all the shortlisted NMTis on parasite isolates 3 and 4 were applied over concentrations up to 20 μM (FIGS. 4C and D).
Plasmodium vivax liver stage assays were performed as described previously. Briefly, 384-well plates were seeded with primary hepatocytes from a single donor lot at a density of 25,000 cells per well. The hepatocytes were then infected with 14,000 freshly hand-dissected sporozoites per well. Cells were exposed to the compounds at indicated concentrations from day 3 post-infection, then proceeded to feed cultures every day, replacing the compounds until day 8 post-infection. Cells were fixed with 4% PFA and stained with PvUIS4 antibodies to detect schizonts and hypnozoites forms by confocal microscopy. The images were processed and analyzed using IMARIS (Bitplane Inc.) image analysis software.

HepG2 cells = experiment: HepG2 cytotoxicity assay (live/dead staining); format: cell-based, human; conditions: positive control, 10-20 μM
Experimental: as §1

Plasmodium NMT = conditions: background, cited from earlier work
P. falciparum = conditions: background; read-out: EC50 in a P. falciparum growth assay; cited from earlier work
[4] = Table 1, enzyme selectivity calculated as HsNMT IC50/PvNMT IC50
[5] = Table 1, mean values of two or more determinations

T1 sequence (A5K1A2 entry or part of it): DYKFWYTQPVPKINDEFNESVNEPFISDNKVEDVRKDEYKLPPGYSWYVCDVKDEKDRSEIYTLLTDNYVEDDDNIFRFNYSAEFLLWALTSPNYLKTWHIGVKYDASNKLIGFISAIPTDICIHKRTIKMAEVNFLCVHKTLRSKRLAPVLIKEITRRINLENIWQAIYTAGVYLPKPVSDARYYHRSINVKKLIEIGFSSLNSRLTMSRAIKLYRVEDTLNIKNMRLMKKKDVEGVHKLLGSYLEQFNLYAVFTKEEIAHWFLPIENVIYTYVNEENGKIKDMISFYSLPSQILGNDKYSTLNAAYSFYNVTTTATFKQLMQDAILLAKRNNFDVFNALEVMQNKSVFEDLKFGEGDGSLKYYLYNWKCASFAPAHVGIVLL

Compound: c1cncc(CCOc2ccc3ccccc3c2-c2ccnc(N3CCNCC3)c2)c1 [Compound 30c, 1-(4-(2-(2-(pyridin-3-yl)ethoxy)naphthalen-1-yl)pyridin-2-yl)piperazine]
- IC50 (PvNMT; Table 2): 248 nM
- SI** (PvNMT; Table 2, HsNMT IC50/PvNMT IC50): 161
- IC50 (HsNMT1; Table 2): > 40000 nM
- inhibition at 20 µM (P. vivax hypnozoites; 20 μM): > 75%

Compound: Cc1nn(C)c(C)c1CCOc1ccc2ccccc2c1-c1ccnc(N2CCNCC2)c1 [Compound 30a, 1-(4-(2-(2-(1,3,5-trimethyl-1H-pyrazol-4-yl)ethoxy)naphthalen-1-yl)pyridin-2-yl)piperazine]
- IC50 (PvNMT; Table 2): 89 nM
- SI** (PvNMT; Table 2, HsNMT IC50/PvNMT IC50): 269.8
- selectivity index (SI) (PvNMT; ratio of IC50 values for HsNMT1 and PvNMT): 269
- IC50 (HsNMT1; Table 2): 24000 nM
- IC50 at 48 h [1]: > 20000 nM
- IC50 [2]: 440 nM
- IC50 (P. vivax hypnozoites): 2100 nM
- IC50 [3]: 2.9 to 4.3 µM

Compound: CN[C@@H]1C[C@H]2O[C@@](C)([C@@H]1OC)n1c3ccccc3c3c4c(c5c6ccccc6n2c5c31)C(=O)NC4 [Staurosporine, reference compound]
- effect on HepG2 cell viability (HepG2 cells): reduced the cell viability

Compound: Cc1n[nH]c(C)c1CCOc1cc(F)ccc1-c1ccnc(N2CCNCC2)c1 [Compound 12q, 1-(4-(2-(2-(3,5-dimetyl-1H-pyrazol-4-yl)ethoxy)-4-fluorophenyl)piridin-2-yl)piperazine]
- SI** (PvNMT; [4]): 22
- IC50 (PvNMT; [5]): 73 nM
- IC50 (HsNMT1; [5]): 1630 nM
- IC50 at 48 h [1]: > 20000 nM
- IC50 [2]: 380 nM
- IC50 (P. vivax hypnozoites): 4400 nM
- IC50 [3]: 2.2 to 3.5 µM

Compound: Cc1nn(C)c(C)c1CCOc1cc(F)ccc1-c1ccc2c(c1)c(CN(C)C)nn2C [IMP-1002]
- IC50 (Plasmodium NMT; previously developed NMT inhibitors): 3 nM
- selectivity over HsNMT1/2 (Plasmodium NMT): up to fourfold
- EC50 (P. falciparum): 10 nM

Compound: Cc1nn(C)c(C)c1CCOc1ccccc1-c1cccc(N2CCNCC2)c1 [Compound 12d, 1-(2′-(2-(1,3,5-trimethyl-1H-pyrazol-4-yl)ethoxy)-[1,1′-biphenyl]-3-yl)piperazine]
- SI** (PvNMT; [4]): 153.4
- IC50 (PvNMT; [5]): 48.5 nM
- IC50 (HsNMT1; [5]): 7440 nM

Compound: Fc1ccc(-c2ccnc(N3CCNCC3)c2)c(OCCc2cccnc2)c1 [Compound 12l, 1-(4-(4-fluoro-2-(2-(pyridin-3-yl)ethoxy)phenyl)pyridin-2-yl)piperazine]
- SI** (PvNMT; [4]): 73
- IC50 (PvNMT; [5]): 23.4 nM
- IC50 (HsNMT1; [5]): 1710 nM

Compound: Cc1n[nH]c(C)c1CCOc1ccccc1-c1ccnc(N2CCNCC2)c1 [Compound 12n, 1-(4-(2-(2-(3,5-dimethyl-1H-pyrazol-4-yl)ethoxy)phenyl)pyridin-2-yl)piperazine]
- SI** (PvNMT; [4]): 65.7
- IC50 (PvNMT; [5]): 604 nM
- IC50 (HsNMT1; [5]): 39700 nM

Compound: Cc1nn(C)c(C)c1NS(=O)(=O)c1c(Cl)cc(-c2ccnc(N3CCNCC3)c2)cc1Cl [DDD85646]
- EC50 (P. falciparum): 69 nM

Compound: c1cncc(CCOc2cccnc2-c2cccc(N3CCNCC3)c2)c1 [Compound 12g, 1-(3-(3-(2-(pyridin-3-yl)ethoxy)pyridin-2-yl)phenyl)piperazine]
- SI** (PvNMT; [4]): 152.8
- IC50 (PvNMT; [5]): 104 nM
- IC50 (HsNMT1; [5]): 15900 nM

Compound: Cc1nn(C)c(C)c1CCOc1cccnc1-c1cccc(OCCN(C)C)c1 [Compound 26a, N,N-dimethyl-2-(3-(3-(2-(1,3,5-trimethyl-1H-pyrazol-4-yl)ethoxy)pyridin-2-yl)phenoxy)-ethan-1-amine]
- IC50 (PvNMT; Table 2): 266 nM
- SI** (PvNMT; Table 2, HsNMT IC50/PvNMT IC50): 153.8
- IC50 (HsNMT1; Table 2): > 40000 nM

Compound: Cc1nn(C)c(C)c1CCOc1cc(F)ccc1-c1cccc(OCCN(C)C)c1 [Compound 26c, 2-((4′-fluoro-2′-(2-(1,3,5-trimethyl-1H-pyrazol-4-yl)ethoxy)-[1,1′-biphenyl]-3-yl)oxy)-N,N-dimethylethan-1-amine]
- IC50 (PvNMT; Table 2): 29.4 nM
- SI** (PvNMT; Table 2, HsNMT IC50/PvNMT IC50): 162.3
- IC50 (HsNMT1; Table 2): 4790 nM

Compound: Cc1nn(C)c(C)c1CCOc1ccccc1-c1ccnc(N2CCNCC2)c1 [Compound 12c, 1-(4-(2-(2-(1,3,5-trimethyl-1H-pyrazol-4-yl)ethoxy)phenyl)pyridin-2-yl)piperazine]
- SI** (PvNMT; [4]): 63.1
- IC50 (PvNMT; [5]): 9.48 nM
- IC50 (HsNMT1; [5]): 599 nM
